Measured values as given in patent US12350294B2, “Medium comprising serum replacement, IGF1, STAT3 activator and adrenal gland hormone without BFGF or rock inhibitor for producing corneal endothelial substitute cells from iPS cells and a method thereof” (KEIO UNIVERSITY, priority 2018, dated 2025).

How the values were obtained:
Type in all cases: cell-based, human
[1] = test system: iPS cells (FF-I01s04 line); test: Differentiation induction inhibitory activity of ROCK inhibitor (immunostaining); details: medium containing fasudil 50 μM
Description: In the same manner as in Example 2 except that a medium containing fasudil (50 μM), which is a ROCK inhibitor, was used, the expression of ATP1A1 and ZO-1 was examined.

iPS cells (FF-I01s04) = test: Effect of TGF-beta 1 added to the induction medium, immunostaining after passage; details: TGF-beta 1 1 ng/mL added to induction medium
Description: Using a medium (hereinafter referred to as CECSi cell induction (+T) medium) obtained by adding TGF-beta 1 (R&D System Inc., #240-GMP (1 ng/mL)) to the differentiation induction medium prepared in Example 1, the effect thereof was investigated.
Induction of iPS cells (FF-I01s04) was started using CECSi cell induction medium or CECSi cell induction (+T) medium, and the first passage was performed on day 11 and the second passage was performed on […] from the start of induction. At the time of passage, the cells were collected using Accutase (Nacalai Tesque #12679-54), and suspended and seeded at a density of 1.5×10^5 cells/cm^2 in a 35 mm dish or 100 mm dish coated with iMatrix 511 at a concentration of 3 μg/ml, without changing the previous medium.
At day 15 (after the first passage) and day 17 (after the second passage) from the start of induction, the expression state of N-cadherin and PITX2 was examined by immunostaining in the same manner as in Example 2.

[2] = test system: iPS cells (FF-I01s04 line); test: Differentiation induction inhibitory activity of bFGF (quantitative PCR and immunostaining)
Description: In the same manner as in Example 1 except that a medium containing bFGF (2 ng/mL) was used, the expression of each gene was quantified. As is clear from the results, when bFGF was added, an increase in ATPA1 or NR3C2 expression was not observed, and therefore an increase in ATP1A1 expression, which is important as the function of corneal endothelial cells, was not observed, either.
The expression of ATP1A1 and ZO-1 in the cells cultured in a medium containing bFGF was examined in the same manner as in Example 2.

[3] = immunostaining, medium containing bFGF
[4] = quantitative PCR, medium containing bFGF 2 ng/mL, day 12

Compound: O=S(=O)(c1cccc2cnccc12)N1CCCNCC1 [fasudil]
- expression of ATP1A1 in the cellular membrane [1]: low
- expression of ZO-1 and cell shape [1]: Elongated cells poorly expressing ZO-1 appeared

Compound: TGF-beta 1: isoform of transforming growth factor beta, protein added to the medium
- endothelial morphology after passage (iPS cells (FF-I01s04); day 15 and day 17): could be maintained
- expression of N-cadherin after passage (iPS cells (FF-I01s04); day 15 and day 17, after first and second passage): maintained

Compound: bFGF: basic fibroblast growth factor
- expression of ATP1A1 [2, 3]: remarkably low
- expression of ZO-1 and cell shape [2, 3]: Elongated cells poorly expressing ZO-1 appeared
- increase in ATP1A1 expression [2, 4]: not observed
- increase in ATPA1 or NR3C2 expression [2, 4]: not observed
